Data from PubChem BioAssay AID248 (DTP/NCI, 2004).
Toxic doses and inconclusive results are not listed. Cut-off read from the data, not from the text of the source: active = T/C of 150% or more; inactive = T/C below 125%.

System: L1210 leukemia ip in BDF1 mice, survival T/C
Experiment: NCI In Vivo Anticancer Drug Screen. Data for tumor model L1210 Leukemia (intraperitoneal) in B6D2F1 (BDF1) mice
Conditions: endpoint: mean survival time, higher = longer survival
In short: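 Transplanted-tumor mice were given test agent; controls received vehicle only. Survival readings from the two groups were divided (treated over control).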

[1] = dose: 100.0 mg/kg/injection, schedule: Q01DX001 (ip), vehicle: saline
[2] = dose: 200.0 mg/kg/injection, schedule: Q01DX001 (ip), vehicle: saline
[3] = dose: 100.0 mg/kg/injection, schedule: Q04DX002 (ip), vehicle: saline
[4] = dose: 100.0 mg/kg/injection, schedule: Q04DX003 (ip), vehicle: saline with Tween-80
[5] = dose: 200.0 mg/kg/injection, schedule: Q04DX003 (ip), vehicle: saline with Tween-80
[6] = dose: 400.0 mg/kg/injection, schedule: Q04DX003 (ip), vehicle: saline with Tween-80

Measured: T/C

COc1ccc2nc(-c3ccc(C)cc3)cc(C(=O)O)c2c1
inactive: [1] 92 % of control | dose: 100.0 mg/kg/injection, schedule: Q04DX003 (ip), vehicle: saline 96 % of control | [2] 106 % of control | dose: 200.0 mg/kg/injection, schedule: Q04DX003 (ip), vehicle: saline 94 % of control | dose: 400.0 mg/kg/injection, schedule: Q01DX001 (ip), vehicle: saline 88 % of control | dose: 400.0 mg/kg/injection, schedule: Q04DX003 (ip), vehicle: saline 97 % of control

CC(N)CC12CC3CC(CC(C3)C1)C2 (configuration not stated)
inactive: dose: 25.0 mg/kg/injection, schedule: Q04DX002 (ip), vehicle: saline 92 % of control | dose: 50.0 mg/kg/injection, schedule: Q04DX002 (ip), vehicle: saline 95 % of control | [3] 97 % of control

C=C1C(=O)OC2/C=C(\C)CC/C=C(/C=O)C(OC)C(OC(=O)C(C)C)C12 (configuration not stated)
inactive: dose: 6.25 mg/kg/injection, schedule: Q01DX009 (ip), vehicle: Klucel (hydroxypropylcellulose) (HPC) 95 % of control | dose: 12.5 mg/kg/injection, schedule: Q01DX009 (ip), vehicle: Klucel (hydroxypropylcellulose) (HPC) 100 % of control | dose: 25.0 mg/kg/injection, schedule: Q01DX009 (ip), vehicle: Klucel (hydroxypropylcellulose) (HPC) 101 % of control

O=C(CCl)Nc1ccc(SSc2ccc(NC(=O)CCl)cc2)cc1
inactive: dose: 50.0 mg/kg/injection, schedule: Q04DX003 (ip), vehicle: Klucel (hydroxypropylcellulose) (HPC) 95 % of control | dose: 100.0 mg/kg/injection, schedule: Q04DX003 (ip), vehicle: Klucel (hydroxypropylcellulose) (HPC) 101 % of control | dose: 200.0 mg/kg/injection, schedule: Q04DX003 (ip), vehicle: Klucel (hydroxypropylcellulose) (HPC) 101 % of control

COc1ccc(CCNC(=O)NC(C)(C)C)cc1OC
inactive: dose: 100.0 mg/kg/injection, schedule: Q04DX002 (ip), vehicle: saline with Tween-80 97 % of control | dose: 200.0 mg/kg/injection, schedule: Q04DX002 (ip), vehicle: saline with Tween-80 94 % of control | dose: 400.0 mg/kg/injection, schedule: Q04DX002 (ip), vehicle: saline with Tween-80 97 % of control

CC(=O)CC(C)=NCC(C)N=C(C)CC(C)=O (configuration not stated)
inactive: dose: 100.0 mg/kg/injection, schedule: Q01DX009 (ip), vehicle: saline with Tween-80 89 % of control | [4] 100 % of control | dose: 200.0 mg/kg/injection, schedule: Q01DX009 (ip), vehicle: saline with Tween-80 98 % of control | [5] 101 % of control | [6] 93 % of control

CC(=O)Nc1ccc(N2CCN=N2)cc1
inactive: dose: 25.0 mg/kg/injection, schedule: Q01DX009 (ip), vehicle: saline with Tween-80 103 % of control | dose: 50.0 mg/kg/injection, schedule: Q01DX009 (ip), vehicle: saline with Tween-80 109 % of control | [4] 97 % of control

CCCC#CCOCC1CO1 (configuration not stated)
inactive: dose: 100.0 mg/kg/injection, schedule: Q01DX009 (ip), vehicle: saline 93 % of control | dose: 100.0 mg/kg/injection, schedule: Q04DX003 (ip), vehicle: saline sonified 98 % of control | dose: 200.0 mg/kg/injection, schedule: Q01DX009 (ip), vehicle: saline 89 % of control | dose: 200.0 mg/kg/injection, schedule: Q04DX003 (ip), vehicle: saline sonified 109 % of control | dose: 400.0 mg/kg/injection, schedule: Q01DX009 (ip), vehicle: saline 91 % of control | dose: 400.0 mg/kg/injection, schedule: Q04DX003 (ip), vehicle: saline sonified 104 % of control

C=CN1CCCC1=O
inactive: dose: 100.0 mg/kg/injection, schedule: Q01DX001 (ip), vehicle: acetone 95 % of control | [1] 97 % of control | [3] 103 % of control | [4] 100 % of control | dose: 200.0 mg/kg/injection, schedule: Q01DX001 (ip), vehicle: acetone 95 % of control | [2] 92 % of control | dose: 200.0 mg/kg/injection, schedule: Q04DX002 (ip), vehicle: saline 103 % of control | [5] 92 % of control | dose: 400.0 mg/kg/injection, schedule: Q01DX001 (ip), vehicle: acetone 93 % of control | dose: 400.0 mg/kg/injection, schedule: Q04DX002 (ip), vehicle: saline 103 % of control | [6] 92 % of control | dose: 600.0 mg/kg/injection, schedule: Q01DX001 (ip), vehicle: saline 100 % of control | dose: 800.0 mg/kg/injection, schedule: Q01DX001 (ip), vehicle: saline 100 % of control | dose: 1000.0 mg/kg/injection, schedule: Q01DX001 (ip), vehicle: saline 106 % of control | dose: 1200.0 mg/kg/injection, schedule: Q01DX001 (ip), vehicle: saline 108 % of control | dose: 1.9 grams/kg/injection, schedule: Q01DX001 (iv), vehicle: saline 98 % of control | dose: 1.9 grams/kg/injection, schedule: Q01DX005 (iv), vehicle: saline 97 % of control | dose: 1.9 grams/kg/injection, schedule: Q04DX003 (iv), vehicle: saline 97 % of control | dose: 3.8 grams/kg/injection, schedule: Q01DX001 (ip), vehicle: saline 90 % of control | dose: 3.8 grams/kg/injection, schedule: Q01DX001 (iv), vehicle: saline 97 % of control | dose: 3.8 grams/kg/injection, schedule: Q01DX005 (ip), vehicle: saline 100 % of control | dose: 3.8 grams/kg/injection, schedule: Q01DX005 (iv), vehicle: saline 96 % of control | dose: 3.8 grams/kg/injection, schedule: Q01DX009 (ip), vehicle: saline 91 % of control | dose: 3.8 grams/kg/injection, schedule: Q03HX008 (ip), vehicle: saline 97 % of control | dose: 3.8 grams/kg/injection, schedule: Q03HX016 (ip), vehicle: saline 98 % of control | dose: 3.8 grams/kg/injection, schedule: Q03HX024 (ip), vehicle: saline 101 % of control | dose: 3.8 grams/kg/injection, schedule: Q04DX003 (ip), vehicle: saline 101 % of control | dose: 3.8 grams/kg/injection, schedule: Q04DX003 (iv), vehicle: saline 94 % of control | dose: 3.8 grams/kg/injection, schedule: Q08DX002 (ip), vehicle: saline 97 % of control | dose: 7.5 grams/kg/injection, schedule: Q01DX001 (ip), vehicle: saline 93 % of control | dose: 7.5 grams/kg/injection, schedule: Q01DX001 (iv), vehicle: saline 97 % of control | dose: 7.5 grams/kg/injection, schedule: Q01DX005 (ip), vehicle: saline 103 % of control | dose: 7.5 grams/kg/injection, schedule: Q01DX005 (iv), vehicle: saline 93 % of control | dose: 7.5 grams/kg/injection, schedule: Q01DX009 (ip), vehicle: saline 97 % of control | dose: 7.5 grams/kg/injection, schedule: Q03HX008 (ip), vehicle: saline 96 % of control | dose: 7.5 grams/kg/injection, schedule: Q03HX016 (ip), vehicle: saline 95 % of control | dose: 7.5 grams/kg/injection, schedule: Q03HX024 (ip), vehicle: saline 103 % of control | dose: 7.5 grams/kg/injection, schedule: Q04DX003 (ip), vehicle: saline 98 % of control | dose: 7.5 grams/kg/injection, schedule: Q04DX003 (iv), vehicle: saline 92 % of control | dose: 7.5 grams/kg/injection, schedule: Q08DX002 (ip), vehicle: saline 98 % of control | dose: 15.0 grams/kg/injection, schedule: Q01DX001 (ip), vehicle: saline 88 % of control | dose: 15.0 grams/kg/injection, schedule: Q01DX005 (ip), vehicle: saline 102 % of control | dose: 15.0 grams/kg/injection, schedule: Q01DX009 (ip), vehicle: saline 96 % of control | dose: 15.0 grams/kg/injection, schedule: Q04DX003 (ip), vehicle: saline 95 % of control | dose: 15.0 grams/kg/injection, schedule: Q08DX002 (ip), vehicle: saline 94 % of control
